In patent publication US20080176936A1, “Classes of Compounds that Interact with Integrins” (priority 2005, published 2008):

Key:
αllbβ3 integrin = target: T1, αllbβ3 integrin (Homo sapiens, UniProt P05106+P08514); assay: ELISA: inhibition of binding of αllbβ3 integrin membrane preparation to coated extracellular matrix protein; conditions: human platelet membrane preparation
T1 construct: Human platelet membrane preparations were used as a source of αllbβ3 integrin; from tissue; host or cells: human platelets (membrane preparation)
Procedure: (§1) An ELISA assay based on the published method of Bethert et al., 2000, J Biol Chem 275, 33308-23, was employed.
(§2) Briefly, appropriate microtitre plates were coated with either Fibrinogen or Vitronectin (10 μg/well). These extracellular matrix proteins contain the RGD amino acid sequence that is recognized by αllbβ3 integrin. Human platelet membrane preparations were used as a source of αllbβ3 integrin and the cell line WM-115 was used as a source of αVβ3 integrin. Inhibition of the binding of αllbβ3 integrin containing membrane preparations to the extracellular matrix protein was determined by pre-incubating the platelet membrane preparation with test or control compounds. The binding of the αllbβ3 integrin containing membrane was the quantitated by using a rabbit anti-integrinβ3 antibody, a horse radish peroxidase coupled second antibody and a standard colorimetric detection system.

αVβ3 integrin = target: T2, αVβ3 integrin (Homo sapiens, UniProt P05106+P06756); assay: ELISA: inhibition of binding of αVβ3 integrin (source WM-115 cell line) to coated extracellular matrix protein; conditions: WM-115 cell line as integrin source
T2 construct: the cell line WM-115 was used as a source of αVβ3 integrin; endogenous in cells; host or cells: WM-115 cell line
Procedure: as §1, §2

T1 sequence (P08514 32-887 limits assumed): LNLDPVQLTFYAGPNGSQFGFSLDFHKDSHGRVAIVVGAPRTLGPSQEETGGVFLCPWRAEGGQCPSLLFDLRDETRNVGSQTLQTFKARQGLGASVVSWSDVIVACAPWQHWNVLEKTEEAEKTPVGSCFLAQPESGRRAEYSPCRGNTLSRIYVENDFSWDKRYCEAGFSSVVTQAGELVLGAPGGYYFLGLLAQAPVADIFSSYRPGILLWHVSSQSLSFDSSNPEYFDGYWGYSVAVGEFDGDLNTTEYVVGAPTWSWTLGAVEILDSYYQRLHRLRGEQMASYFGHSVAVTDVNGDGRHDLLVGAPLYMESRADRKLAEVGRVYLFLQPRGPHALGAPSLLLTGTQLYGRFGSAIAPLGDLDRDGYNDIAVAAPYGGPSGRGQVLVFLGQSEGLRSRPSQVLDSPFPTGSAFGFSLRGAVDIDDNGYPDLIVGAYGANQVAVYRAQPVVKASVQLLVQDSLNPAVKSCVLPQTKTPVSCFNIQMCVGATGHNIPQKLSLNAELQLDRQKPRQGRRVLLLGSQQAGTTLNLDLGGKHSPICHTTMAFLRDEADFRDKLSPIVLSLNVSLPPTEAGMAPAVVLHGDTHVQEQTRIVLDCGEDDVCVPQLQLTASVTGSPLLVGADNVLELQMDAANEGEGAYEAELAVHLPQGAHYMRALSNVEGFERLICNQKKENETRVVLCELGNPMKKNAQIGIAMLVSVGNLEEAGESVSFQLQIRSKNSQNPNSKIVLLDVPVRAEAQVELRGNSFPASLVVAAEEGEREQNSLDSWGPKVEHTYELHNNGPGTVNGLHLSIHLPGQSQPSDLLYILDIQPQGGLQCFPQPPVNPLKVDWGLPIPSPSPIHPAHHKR
T1 sequence (P08514 891-1039 partner limits assumed): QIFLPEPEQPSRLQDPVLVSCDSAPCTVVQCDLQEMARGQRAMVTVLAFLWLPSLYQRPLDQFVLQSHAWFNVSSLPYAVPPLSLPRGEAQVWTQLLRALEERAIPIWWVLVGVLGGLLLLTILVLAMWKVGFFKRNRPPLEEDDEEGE
T1 sequence (P05106 27-788): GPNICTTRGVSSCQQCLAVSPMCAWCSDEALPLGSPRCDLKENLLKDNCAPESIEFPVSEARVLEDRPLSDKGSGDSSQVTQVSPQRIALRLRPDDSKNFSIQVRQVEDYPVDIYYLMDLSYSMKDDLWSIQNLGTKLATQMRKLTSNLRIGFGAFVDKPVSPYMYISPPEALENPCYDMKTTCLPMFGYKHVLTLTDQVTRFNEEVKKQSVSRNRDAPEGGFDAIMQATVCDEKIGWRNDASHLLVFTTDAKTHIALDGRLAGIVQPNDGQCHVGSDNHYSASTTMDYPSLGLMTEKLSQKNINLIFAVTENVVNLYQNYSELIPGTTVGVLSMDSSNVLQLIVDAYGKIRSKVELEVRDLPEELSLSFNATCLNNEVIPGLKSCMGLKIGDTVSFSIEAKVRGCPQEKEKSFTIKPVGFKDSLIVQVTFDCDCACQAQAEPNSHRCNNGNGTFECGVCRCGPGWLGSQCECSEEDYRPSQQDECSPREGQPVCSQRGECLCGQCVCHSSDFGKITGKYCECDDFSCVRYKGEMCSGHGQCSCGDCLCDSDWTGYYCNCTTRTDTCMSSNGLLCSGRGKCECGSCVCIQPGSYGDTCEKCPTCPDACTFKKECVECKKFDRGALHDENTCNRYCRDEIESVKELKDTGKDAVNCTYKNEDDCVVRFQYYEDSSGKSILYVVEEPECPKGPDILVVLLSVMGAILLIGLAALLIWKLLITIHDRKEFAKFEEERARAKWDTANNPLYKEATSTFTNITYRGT
T2 sequence (P06756 31-889 limits assumed): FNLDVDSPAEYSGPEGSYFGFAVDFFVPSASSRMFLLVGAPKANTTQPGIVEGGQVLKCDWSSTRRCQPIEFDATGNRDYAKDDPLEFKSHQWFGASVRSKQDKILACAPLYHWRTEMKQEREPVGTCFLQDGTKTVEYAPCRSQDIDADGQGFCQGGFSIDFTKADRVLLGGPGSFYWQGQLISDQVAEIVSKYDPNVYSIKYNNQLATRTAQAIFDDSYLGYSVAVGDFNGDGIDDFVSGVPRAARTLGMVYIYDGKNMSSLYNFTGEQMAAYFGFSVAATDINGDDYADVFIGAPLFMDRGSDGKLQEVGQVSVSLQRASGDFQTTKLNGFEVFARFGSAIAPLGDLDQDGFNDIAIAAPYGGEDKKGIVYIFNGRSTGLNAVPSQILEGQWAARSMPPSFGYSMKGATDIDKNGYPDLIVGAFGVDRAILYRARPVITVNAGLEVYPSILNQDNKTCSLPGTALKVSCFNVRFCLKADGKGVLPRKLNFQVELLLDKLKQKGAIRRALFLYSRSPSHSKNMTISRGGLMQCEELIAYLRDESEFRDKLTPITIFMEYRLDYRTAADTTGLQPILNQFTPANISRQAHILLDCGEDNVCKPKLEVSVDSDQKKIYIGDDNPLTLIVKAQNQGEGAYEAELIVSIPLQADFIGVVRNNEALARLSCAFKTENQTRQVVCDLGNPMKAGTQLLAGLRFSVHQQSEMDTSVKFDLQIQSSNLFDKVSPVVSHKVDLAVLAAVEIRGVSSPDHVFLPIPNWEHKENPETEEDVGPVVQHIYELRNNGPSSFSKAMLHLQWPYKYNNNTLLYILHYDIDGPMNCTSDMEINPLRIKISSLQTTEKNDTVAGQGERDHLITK
T2 sequence (P06756 891-1048 partner limits assumed): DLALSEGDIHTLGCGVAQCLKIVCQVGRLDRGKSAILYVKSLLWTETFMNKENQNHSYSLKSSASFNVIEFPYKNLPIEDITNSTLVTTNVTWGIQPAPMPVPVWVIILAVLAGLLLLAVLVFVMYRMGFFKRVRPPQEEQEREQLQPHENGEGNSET
T2 sequence (P05106 27-788): as the sequence (P05106 27-788) above

| Structure (SMILES) | INHIBITION @ 250 uM RECEPTOR allBb3 SUBSTRATE FIBRINOGEN (αllbβ3 integrin) | INHIBITION 250 uM RECEPTOR allBb3 SUBSTRATE VITRONECTIN (αllbβ3 integrin) | INHIBITION 250 uM RECEPTOR aVb3 SUBSTRATE FIBRINOGEN (αVβ3 integrin) |
| --- | --- | --- | --- |
| CCOC1O[C@H](COCc2ccccc2)[C@@H](O)[C@H](OCC(=O)O)[C@H]1NC(=O)CCNC(=N)N (single isomer, unassigned) [Compound 48] | ++ (61% to 80% inhibition at 250 micromolar) | +++ (81% to 100% inhibition at 250 micromolar) | +++ (81% to 100% inhibition at 250 micromolar) |
| CCOC1O[C@H](COCc2ccccc2)[C@@H](O)[C@H](OCC(=O)O)[C@H]1NC(=O)CCNC(=N)N (single isomer, unassigned) [Compound 49] | ++ (61% to 80% inhibition at 250 micromolar) | +++ (81% to 100% inhibition at 250 micromolar) | +++ (81% to 100% inhibition at 250 micromolar) |
| CCOC1O[C@H](COCc2ccc(Br)cc2)[C@@H](O)[C@H](OCC(=O)O)[C@H]1NC(=O)CCNC(=N)N (single isomer, unassigned) [Compound 50] | + (36% to 60% inhibition at 250 micromolar) | +++ (81% to 100% inhibition at 250 micromolar) | +++ (81% to 100% inhibition at 250 micromolar) |
| CCOC1O[C@H](COCc2ccc(Br)cc2)[C@@H](O)[C@H](OCC(=O)O)[C@H]1NC(=O)CCNC(=N)N (single isomer, unassigned) [Compound 51] | ++ (61% to 80% inhibition at 250 micromolar) | +++ (81% to 100% inhibition at 250 micromolar) | ++ (61% to 80% inhibition at 250 micromolar) |
| CCOC1O[C@H](COCc2ccc(Br)cc2)[C@@H](O)[C@H](OCC(=O)O)[C@H]1NC(=O)CCNC(=N)N (single isomer, unassigned) [Compound 52] | + (36% to 60% inhibition at 250 micromolar) | ++ (61% to 80% inhibition at 250 micromolar) | +++ (81% to 100% inhibition at 250 micromolar) |
| CCOC1O[C@H](COCc2cccc(N)c2)[C@@H](O)[C@H](OCC(=O)O)[C@H]1NC(=O)c1ccccc1 (single isomer, unassigned) [Compound 54] | − (0% to 35% inhibition at 250 micromolar) | ++ (61% to 80% inhibition at 250 micromolar) | + (36% to 60% inhibition at 250 micromolar) |
| CCOC1O[C@H](COCc2cccc(N)c2)[C@@H](O)[C@H](OCC(=O)O)[C@H]1NC(=O)c1ccccc1 (single isomer, unassigned) [Compound 55] | + (36% to 60% inhibition at 250 micromolar) | +++ (81% to 100% inhibition at 250 micromolar) | +++ (81% to 100% inhibition at 250 micromolar) |
| CCOC1O[C@H](COCc2ccccc2)[C@@H](O)[C@H](OCc2ccc(C(=O)O)cc2)[C@H]1NC(=O)CCNC(=N)N (single isomer, unassigned) [Compound 57] | − (0% to 35% inhibition at 250 micromolar) | +++ (81% to 100% inhibition at 250 micromolar) | +++ (81% to 100% inhibition at 250 micromolar) |
| CCOC1O[C@H](COCc2ccccc2)[C@@H](O)[C@H](OCc2ccc(C(=O)O)cc2)[C@H]1NC(=O)CCNC(=N)N (single isomer, unassigned) [Compound 58] | + (36% to 60% inhibition at 250 micromolar) | +++ (81% to 100% inhibition at 250 micromolar) | +++ (81% to 100% inhibition at 250 micromolar) |
| N=C(N)NCCC(=O)N[C@H]1C(O)O[C@H](COCc2ccccc2)[C@@H](O)[C@@H]1OCc1ccc(C(=O)O)cc1 (single isomer, unassigned) [Compound 59] | + (36% to 60% inhibition at 250 micromolar) | +++ (81% to 100% inhibition at 250 micromolar) | +++ (81% to 100% inhibition at 250 micromolar) |
| CCOC1O[C@H](COCc2ccc(Br)cc2)[C@@H](O)[C@H](OCc2ccc(C(=O)O)cc2)[C@H]1NC(=O)CCNC(=N)N (single isomer, unassigned) [Compound 60] | + (36% to 60% inhibition at 250 micromolar) | +++ (81% to 100% inhibition at 250 micromolar) | +++ (81% to 100% inhibition at 250 micromolar) |
| CCOC1O[C@H](COCc2ccc(Br)cc2)[C@@H](O)[C@H](OCc2ccc(C(=O)O)cc2)[C@H]1NC(=O)CCNC(=N)N (single isomer, unassigned) [Compound 61] | − (0% to 35% inhibition at 250 micromolar) | +++ (81% to 100% inhibition at 250 micromolar) | +++ (81% to 100% inhibition at 250 micromolar) |
| N=C(N)NCCC(=O)N[C@H]1C(O)O[C@H](COCc2ccc(Br)cc2)[C@@H](O)[C@@H]1OCc1ccc(C(=O)O)cc1 (single isomer, unassigned) [Compound 63] | ++ (61% to 80% inhibition at 250 micromolar) | +++ (81% to 100% inhibition at 250 micromolar) | − (0% to 35% inhibition at 250 micromolar) |
| CCOC1OC(COCc2cccc(N)c2)C(O)C(OCc2ccc(C(=O)O)cc2)C1NC(=O)c1ccc(Cl)cc1 (single isomer, unassigned) [Compound 64] | − (0% to 35% inhibition at 250 micromolar) | ++ (61% to 80% inhibition at 250 micromolar) | + (36% to 60% inhibition at 250 micromolar) |
| Nc1cccc(COCC2OC(O)C(NC(=O)c3ccc(Cl)cc3)C(OCc3ccc(C(=O)O)cc3)C2O)c1 (single isomer, unassigned) [Compound 66] | + (36% to 60% inhibition at 250 micromolar) | +++ (81% to 100% inhibition at 250 micromolar) | + (36% to 60% inhibition at 250 micromolar) |
| Nc1cccc(COCC2OC(O)C(NC(=O)c3ccc(Cl)cc3)C(OCc3ccc(C(=O)O)cc3)C2O)c1 (single isomer, unassigned) [Compound 67] | + (36% to 60% inhibition at 250 micromolar) | +++ (81% to 100% inhibition at 250 micromolar) | − (0% to 35% inhibition at 250 micromolar) |
| CCOC1OC(COCc2ccccc2)C(O)C(OCc2cccc(N)c2)C1NC(=O)c1ccc(C(=O)O)cc1 (single isomer, unassigned) [Compound 68] | − (0% to 35% inhibition at 250 micromolar) | ++ (61% to 80% inhibition at 250 micromolar) | ++ (61% to 80% inhibition at 250 micromolar) |
| CCOC1OC(COCc2ccccc2)C(O)C(OCc2cccc(N)c2)C1NC(=O)c1ccc(C(=O)O)cc1 (single isomer, unassigned) [Compound 69] | − (0% to 35% inhibition at 250 micromolar) | +++ (81% to 100% inhibition at 250 micromolar) | +++ (81% to 100% inhibition at 250 micromolar) |
| Nc1cccc(COC2C(O)C(COCc3ccccc3)OC(O)C2NC(=O)c2ccc(C(=O)O)cc2)c1 (single isomer, unassigned) [Compound 70] | + (36% to 60% inhibition at 250 micromolar) | +++ (81% to 100% inhibition at 250 micromolar) | +++ (81% to 100% inhibition at 250 micromolar) |
| Nc1cccc(COC2C(O)C(COCc3ccccc3)OC(O)C2NC(=O)c2ccc(C(=O)O)cc2)c1 (single isomer, unassigned) [Compound 71] | − (0% to 35% inhibition at 250 micromolar) | +++ (81% to 100% inhibition at 250 micromolar) | +++ (81% to 100% inhibition at 250 micromolar) |
| CCOC1OC(COCc2ccc(Br)cc2)C(O)C(OCc2cccc(N)c2)C1NC(=O)c1ccc(C(=O)O)cc1 (single isomer, unassigned) [Compound 72] | + (36% to 60% inhibition at 250 micromolar) | +++ (81% to 100% inhibition at 250 micromolar) | +++ (81% to 100% inhibition at 250 micromolar) |
| CCOC1OC(COCc2ccc(Br)cc2)C(O)C(OCc2cccc(N)c2)C1NC(=O)c1ccc(C(=O)O)cc1 (single isomer, unassigned) [Compound 73] | ++ (61% to 80% inhibition at 250 micromolar) | +++ (81% to 100% inhibition at 250 micromolar) | − (0% to 35% inhibition at 250 micromolar) |
